Measurements taken from US9051456B2, “Agent for drug clearance and accelerator for drug clearance” (SEIKAGAKU CORPORATION, priority 2005, dated 2015).

Assay: Elimination of FP from inside of the oral cavity by gargling/rinsing (Tests 1 to 6), FP in spat-out liquids measured by HPLC
Format: in vivo, human (healthy adult volunteers)
Conditions: conclusion from Tests 1 to 6
Procedure: Healthy 5 adult volunteers were selected. In this connection, these volunteers received sufficient explanation from a doctor based on a descriptive document, and after understanding the explanation, submitted a document on their own judgment stating that they approved the participation in the test.
In this connection, application of FP was carried out by directly applying the FP (dry powder) took out on powder papers. Also, the subjects were given attention not to inhale the FP applied into the oral cavity from the bronchus to the lungs.
Test 1: After rinsing inside of the oral cavity, inside of the oral cavity was dried by blowing air for 30 seconds with a dryer, and then FP (100 μg) was sparged to the oral cavity. Thereafter, rinsing of the mouth with looking upward (gargling) was carried out for 5 seconds and then rinsing of the mouth facing front (rinsing) was carried out for 5 seconds (these are regarded as once), respectively using 20 ml of purified water, which was repeated 5 times. […]
In each test, the liquids spat out after gargling and rinsing by each subject were recovered, and FP concentrations in said liquids were respectively measured. […]
Based on the measured FP concentrations, amounts of FP eliminated from inside of the oral cavity were calculated, and mean value and standard deviation (SD) in each test were calculated. […]

For hyaluronic acid [HA], the “overall effect on elimination of drugs and acceleration of elimination” value was “markedly effective”.
